# Patent publication US20230011869A1 (Hoffmann-La Roche Inc., priority 2018, published 2023)
# Structures can show the parent of a compound that is named as a salt.
# Tested on: Acinetobacter baumannii ATCC17978
# Assay: Antimicrobial susceptibility testing: 90% growth inhibitory concentration (IC90) determination, Iso-Sensitest broth
# Assay type: cell-based
# Details: 90% growth inhibitory concentration, Acinetobacter baumannii ATCC17978, Iso-Sensitest broth, OD 600 nm over 16 h; read-out: ATCC17978 IC90
# In short: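 A. baumannii ATCC17978 grown in Iso-Sensitest broth across 10 compound concentrations at 35±2 °C.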
row,SMILES,IC90 [nM]
1,"COc1ccc(-c2cnc3c(Nc4ccc(C(=O)N5CCC(CN)CC5)c(C(F)F)c4)nccn23)cc1F [Example 340, [4-(aminomethyl)piperidin-1-yl]-[2-(difluoromethyl)-4-[[3-(3-fluoro-4-methoxyphenyl)imidazo[1,2-a]pyrazin-8-yl]amino]phenyl]methanone]",500
2,"COc1ccc(-c2cnc3c(Nc4ccc(C(=O)N5CCC(c6nncn6C)CC5)c(C)c4)nccn23)cc1F [Example 357, [4-[[3-(3-fluoro-4-methoxyphenyl)imidazo[1,2-a]pyrazin-8-yl]amino]-2-methylphenyl]-[4-(4-methyl-1,2,4-triazol-3-yl)piperidin-1-yl]methanone]",330
3,"Cc1cc(Nc2nccn3c(-c4ccc(OC(F)F)c(F)c4)cnc23)ccc1C(=O)N1CCC(N)CC1 [Example 362, (4-aminopiperidin-1-yl)-[4-[[3-[4-(difluoromethoxy)-3-fluorophenyl]imidazo[1,2-a]pyrazin-8-yl]amino]-2-methylphenyl]methanone; hy-drochloride]",490

# Same assay, conditions: Acinetobacter baumannii, ATCC17978, 16 h, read-out: ATCC17978 IC90, 90% growth inhibitory concentration, Acinetobacter baumannii ATCC17978, Iso-Sensitest broth, OD 600 nm over 16 h
row,SMILES,IC90 [nM]
1,"CC(=O)NCCCC[C@H](N)C(=O)N1CCN(C(=O)c2ccc(Nc3nccn4c(-c5ccc(OC(F)F)cc5)cnc34)cc2C)CC1 [Example 338, N-[(5S)-5-amino-6-[4-[4-[[3-[4-(difluoromethoxy)phenyl]imi-dazo[1,2-a]pyrazin-8-yl]amino]-2-methylbenzoyl]piperazin-1-yl]-6-oxohexyl]acetamide; hydrochloride]",480
2,"Cc1cc(Nc2nccn3c(-c4ccc(OC(F)F)cc4)cnc23)ccc1C(=O)N1CCN(C(=O)C(C)(C)N)CC1 [Example 339, 2-amino-1-[4-[4-[[3-[4-(difluoromethoxy)phenyl]imi-dazo[1,2-a]pyrazin-8-yl]amino]-2-methylbenzoyl]piperazin-1-yl]-2-methylpropan-1-one; hydrochloride]",500
3,"Cc1cc(Nc2nccn3c(-c4ccc(OC(F)F)cc4)cnc23)ccc1C(=O)N1CCN(C(=O)[C@@H]2CNCCO2)CC1 [Example 341, [4-[[3-[4-(difluoromethoxy)phenyl]imi-dazo[1,2-a]pyrazin-8-yl]amino]-2-methylphenyl]-[4-[(2S)-morpholine-2-carbonyl]piperazin-1-yl]methanone; hydrochloride]",520
4,"CCC[C@@H](N)C(=O)N1CCN(C(=O)c2ccc(Nc3nccn4c(-c5ccc(OC(F)F)cc5)cnc34)cc2C)CC1 [Example 342, (2R)-2-amino-1-[4-[4-[[3-[4-(difluoromethoxy)phenyl]imi-dazo[1,2-a]pyrazin-8-yl]amino]-2-methylbenzoyl]piperazin-1-yl]pentan-1-one; hydrochloride]",550
5,"CCC[C@H](N)C(=O)N1CCN(C(=O)c2ccc(Nc3nccn4c(-c5ccc(OC(F)F)cc5)cnc34)cc2C)CC1 [Example 343, (2S)-2-amino-1-[4-[4-[[3-[4-(difluoromethoxy)phenyl]imi-dazo[1,2-a]pyrazin-8-yl]amino]-2-methylbenzoyl]piperazin-1-yl]pentan-1-one]",560
6,"CCC(N)C(=O)N1CCN(C(=O)c2ccc(Nc3nccn4c(-c5ccc(OC(F)F)cc5)cnc34)cc2C)CC1 (stereo not drawn) [Example 344, 2-amino-1-[4-[4-[[3-[4-(difluoromethoxy)phenyl]imi-dazo[1,2-a]pyrazin-8-yl]amino]-2-methylbenzoyl]piperazin-1-yl]butan-1-one; hydrochloride]",560
7,"Cc1cc(Nc2nccn3c(-c4ccc(OC(F)F)cc4)cnc23)ccc1C(=O)N1CCN(C(=O)CNC(=O)CN)CC1 [Example 345, 2-amino-N-[2-[4-[4-[[3-[4-(difluoromethoxy)phenyl]imi-dazo[1,2-a]pyrazin-8-yl]amino]-2-methylbenzoyl]piperazin-1-yl]-2-oxoethyl]acetamide]",570
8,"Cc1cc(Nc2nccn3c(-c4ccc(OC(F)F)cc4)cnc23)ccc1C(=O)N1CCN(C(=O)C(O)CO)CC1 (stereo not drawn) [Example 346, 1-[4-[4-[[3-[4-(difluoromethoxy)phenyl]imi-dazo[1,2-a]pyrazin-8-yl]amino]-2-methylbenzoyl]piperazin-1-yl]-2,3-dihydroxypropan-1-one]",620
9,"Cc1cc(Nc2nccn3c(-c4ccc(OC(F)F)cc4)cnc23)ccc1C(=O)N1CCN(C(=O)CN2CCNCC2)CC1 [Example 347, 1-[4-[4-[[3-[4-(difluoromethoxy)phenyl]imi-dazo[1,2-a]pyrazin-8-yl]amino]-2-methylbenzoyl]piperazin-1-yl]-2-piperazin-1-ylethanone]",650
10,"COc1ccc(-c2cnc3c(Nc4ccc(C(=O)N5CCN(C6CCNC6)CC5)c(C)c4)nccn23)cc1F (stereo not drawn) [Example 348, [4-[[3-(3-fluoro-4-methoxyphenyl)imidazo[1,2-a]pyrazin-8-yl]amino]-2-methylphenyl]-(4-pyrrolidin-3-ylpiperazin-1-yl)methanone; hydrochloride]",660
11,"Cc1cc(Nc2nccn3c(-c4ccc(OC(F)F)cc4)cnc23)ccc1C(=O)N1CCC(C(=O)N2C[C@H](O)[C@@H](O)[C@H](O)[C@H]2CO)CC1 [Example 349, [4-[[3-[4-(difluoromethoxy)phenyl]imi-dazo[1,2-a]pyrazin-8-yl]amino]-2-methylphenyl]-[4-[(2R,3R,4R,5S)-3,4,5-trihydroxy-2-(hydroxymethyl)piperidine-1-carbonyl]piperidin-1-yl]methanone]",660
12,"Cc1cc(Nc2nccn3c(-c4ccc(OC(F)F)cc4)cnc23)ccc1C(=O)N1CCC(C(=O)N[C@@H]2[C@@H](O)[C@H](O)[C@@H](CO)O[C@@H]2O)CC1 [Example 350, 1-[4-[[3-[4-(difluoromethoxy)phenyl]imi-dazo[1,2-a]pyrazin-8-yl]amino]-2-methylbenzoyl]-N-[(2S,3R,4R,5S,6R)-2,4,5-trihydroxy-6-(hydroxymethyl)oxan-3-yl]piperidine-4-carboxamide]",710
13,"CCNC(=O)CN1CCN(C(=O)c2ccc(Nc3nccn4c(-c5ccc(OC(F)F)cc5)cnc34)cc2C)CC1 [Example 352, 2-[4-[4-[[3-[4-(difluoromethoxy)phenyl]imi-dazo[1,2-a]pyrazin-8-yl]amino]-2-methylbenzoyl]piperazin-1-yl]-N-ethylacetamide]",220
14,"Cc1cc(Nc2nccn3c(-c4ccc(OC(F)F)cc4)cnc23)ccc1C(=O)N1CCC(Cn2ccnc2)CC1 [Example 353, [4-[[3-[4-(difluoromethoxy)phenyl]imi-dazo[1,2-a]pyrazin-8-yl]amino]-2-methylphenyl]-[4-(imidazol-1-ylmethyl)piperidin-1-yl]methanone]",240
15,"Cc1cc(Nc2nccn3c(-c4ccc(OC(F)F)cc4)cnc23)ccc1C(=O)N1CCC(Cn2cnnc2)CC1 [Example 354, [4-[[3-[4-(difluoromethoxy)phenyl]imi-dazo[1,2-a]pyrazin-8-yl]amino]-2-methylphenyl]-[4-(1,2,4-triazol-4-ylmethyl)piperidin-1-yl]methanone]",240
16,"Cc1cc(Nc2nccn3c(-c4ccc(OC(F)F)cc4)cnc23)ccc1C(=O)N1CCN(CCN2CCCCC2)CC1 [Example 355, [4-[[3-[4-(difluoromethoxy)phenyl]imi-dazo[1,2-a]pyrazin-8-yl]amino]-2-methylphenyl]-[4-(2-piperidin-1-ylethyl)piperazin-1-yl]methanone]",260
17,"Cc1cc(Nc2nccn3c(-c4ccc(OC(F)F)cc4)cnc23)ccc1C(=O)N1CCC(c2nccn2C)CC1 [Example 356, [4-[[3-[4-(difluoromethoxy)phenyl]imi-dazo[1,2-a]pyrazin-8-yl]amino]-2-methylphenyl]-[4-(1-methylimidazol-2-yl)piperidin-1-yl]methanone]",300
18,"CNCCNC(=O)C1CCN(C(=O)c2ccc(Nc3nccn4c(-c5ccc(OC(F)F)cc5)cnc34)cc2C)CC1 [Example 358, 1-[4-[[3-[4-(difluoromethoxy)phenyl]imi-dazo[1,2-a]pyrazin-8-yl]amino]-2-methylbenzoyl]-N-[2-(methylamino)ethyl]piperidine-4-carboxamide; hydrochloride]",340
19,"Cc1cc(Nc2nccn3c(-c4ccc(OC(F)F)cc4)cnc23)ccc1C(=O)N1CCC2(CCNCC2)CC1 [Example 359, 3,9-diazaspiro[5.5]undecan-3-yl-[4-[[3-[4-(difluoromethoxy)phenyl]imi-dazo[1,2-a]pyrazin-8-yl]amino]-2-methylphenyl]methanone; hy-drochloride]",410
20,"Cc1cc(Nc2nccn3c(-c4ccc(OC(F)F)cc4)cnc23)ccc1C(=O)N1CCC2(CC1)CNC2 [Example 360, 2,7-diazaspiro[3.5]nonan-7-yl-[4-[[3-[4-(difluoromethoxy)phenyl]imi-dazo[1,2-a]pyrazin-8-yl]amino]-2-methylphenyl]methanone; hy-drochloride]",420
21,"Cc1cc(Nc2nccn3c(-c4ccc(OC(F)F)cc4)cnc23)ccc1C(=O)N1CCC(N)CC1 [Example 361, (4-aminopiperidin-1-yl)-[4-[[3-[4-(difluoromethoxy)phenyl]imi-dazo[1,2-a]pyrazin-8-yl]amino]-2-methylphenyl]methanone; hy-drochloride]",450
22,"CCc1cc(Nc2nccn3c(-c4ccc(OC(F)F)cc4)cnc23)ccc1C(=O)N1CCC(CN)CC1 [Example 363, [4-(aminomethyl)piperidin-1-yl]-[4-[[3-[4-(difluoromethoxy)phenyl]imi-dazo[1,2-a]pyrazin-8-yl]amino]-2-ethylphenyl]methanone; hydro-chloride]",520
23,"Cc1cc(Nc2nccn3c(-c4ccc(OC(F)F)cc4)cnc23)ccc1C(=O)N1CCOC(CN)C1 (stereo not drawn) [Example 364, [2-(aminomethyl)morpholin-4-yl]-[4-[[3-[4-(difluoromethoxy)phenyl]imi-dazo[1,2-a]pyrazin-8-yl]amino]-2-methylphenyl]methanone; hy-drochloride]",530
24,"Cc1cc(Nc2nccn3c(-c4ccc(OC(F)F)cc4)cnc23)ccc1C(=O)N1CCC2(COC2)C1 [Example 365, [4-[[3-[4-(difluoromethoxy)phenyl]imi-dazo[1,2-a]pyrazin-8-yl]amino]-2-methylphenyl]-(2-oxa-7-azaspiro[3.4]octan-7-yl)methanone]",550
